In ChEMBL document CHEMBL1909046, “DrugMatrix in vitro pharmacology data”:

Tests used:
[1] = target: T1, Alpha-1A adrenergic receptor (Rattus norvegicus, UniProt P43140); test: DRUGMATRIX: Alpha-1A adrenergic receptor radioligand binding (ligand: prazosin); type: cell membranes, Wistar, Submaxillary gland, Membrane; settings: Not Active = under 50% inhibition at 10 µM
T1 sequence (P43140 whole entry): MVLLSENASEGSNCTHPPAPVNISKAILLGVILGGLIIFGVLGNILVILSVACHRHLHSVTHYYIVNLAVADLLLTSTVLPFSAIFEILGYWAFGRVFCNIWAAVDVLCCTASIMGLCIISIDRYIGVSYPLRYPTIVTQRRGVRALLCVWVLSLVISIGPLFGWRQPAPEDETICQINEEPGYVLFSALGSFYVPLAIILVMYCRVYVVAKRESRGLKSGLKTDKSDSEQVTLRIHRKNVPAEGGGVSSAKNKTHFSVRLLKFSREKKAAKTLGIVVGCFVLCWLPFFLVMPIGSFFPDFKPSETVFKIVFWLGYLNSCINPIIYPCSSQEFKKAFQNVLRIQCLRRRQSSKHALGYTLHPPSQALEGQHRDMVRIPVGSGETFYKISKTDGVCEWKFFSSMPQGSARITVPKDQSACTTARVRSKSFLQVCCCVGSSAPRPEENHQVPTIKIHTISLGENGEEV

[2] = target: Protein kinase C alpha type (Homo sapiens, UniProt P17252); type: cell-based; settings: sf9;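 also: inhibition of PKCalpha kinase activity measured in an enzyme assay with histone as the phosphorylation substrate; in other assays of this panel Not Active means under 50% inhibition at 10 µM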
Cathepsin G = target: T2, Cathepsin G (Homo sapiens, UniProt P08311); type: tissue-based; settings: neutrophil;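 also: inhibition of Cathepsin G enzyme activity, tested on an AMC-conjugated peptide substrate; in other assays of this panel Not Active means under 50% inhibition at 10 µM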
T2 sequence (P08311 whole entry): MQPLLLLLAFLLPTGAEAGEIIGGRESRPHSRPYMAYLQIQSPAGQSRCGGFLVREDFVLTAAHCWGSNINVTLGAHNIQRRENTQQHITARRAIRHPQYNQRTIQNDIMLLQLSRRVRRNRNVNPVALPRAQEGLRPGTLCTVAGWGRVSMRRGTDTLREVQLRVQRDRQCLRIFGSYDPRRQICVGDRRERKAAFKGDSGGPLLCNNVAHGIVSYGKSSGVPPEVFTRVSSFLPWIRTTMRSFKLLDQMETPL

[3] = DRUGMATRIX: Nicotinic Acetylcholine radioligand binding (ligand: [125I] Epibatidine); type: cell membranes, Membrane; settings: imr-32; Not Active = under 50% inhibition at 10 µM
[4] = target: Matrix metalloproteinase-9 (Homo sapiens, UniProt P14780); test: biochemical; type: cell-based;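 also: inhibition of isolated MMP-9 enzyme activity toward a synthetic peptide substrate, from the DrugMatrix protease screening panel; in other assays of this panel Not Active means under 50% inhibition at 10 µM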
Progesterone receptor = target: T3, Progesterone receptor (Bos taurus, UniProt Q690N0); test: DRUGMATRIX: Progesterone radioligand binding (ligand: [3H] R-5020); type: tissue-based, Uterus; settings: Not Active = under 50% inhibition at 10 µM
T3 sequence (Q690N0 whole entry): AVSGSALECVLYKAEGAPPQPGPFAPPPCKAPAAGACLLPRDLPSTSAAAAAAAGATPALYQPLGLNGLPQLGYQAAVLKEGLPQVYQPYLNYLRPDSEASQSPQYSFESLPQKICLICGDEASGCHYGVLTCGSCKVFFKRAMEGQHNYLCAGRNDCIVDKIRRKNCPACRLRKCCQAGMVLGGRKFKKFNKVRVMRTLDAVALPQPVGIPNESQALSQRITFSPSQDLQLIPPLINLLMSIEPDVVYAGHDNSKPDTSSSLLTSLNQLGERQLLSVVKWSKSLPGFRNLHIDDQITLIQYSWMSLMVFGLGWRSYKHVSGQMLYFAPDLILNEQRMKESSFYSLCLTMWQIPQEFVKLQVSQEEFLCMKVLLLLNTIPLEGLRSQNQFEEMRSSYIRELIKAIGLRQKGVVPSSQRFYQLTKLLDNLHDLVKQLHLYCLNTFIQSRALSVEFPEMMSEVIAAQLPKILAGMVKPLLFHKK

Chain of Matrix metalloproteinase-9 (P14780 whole entry): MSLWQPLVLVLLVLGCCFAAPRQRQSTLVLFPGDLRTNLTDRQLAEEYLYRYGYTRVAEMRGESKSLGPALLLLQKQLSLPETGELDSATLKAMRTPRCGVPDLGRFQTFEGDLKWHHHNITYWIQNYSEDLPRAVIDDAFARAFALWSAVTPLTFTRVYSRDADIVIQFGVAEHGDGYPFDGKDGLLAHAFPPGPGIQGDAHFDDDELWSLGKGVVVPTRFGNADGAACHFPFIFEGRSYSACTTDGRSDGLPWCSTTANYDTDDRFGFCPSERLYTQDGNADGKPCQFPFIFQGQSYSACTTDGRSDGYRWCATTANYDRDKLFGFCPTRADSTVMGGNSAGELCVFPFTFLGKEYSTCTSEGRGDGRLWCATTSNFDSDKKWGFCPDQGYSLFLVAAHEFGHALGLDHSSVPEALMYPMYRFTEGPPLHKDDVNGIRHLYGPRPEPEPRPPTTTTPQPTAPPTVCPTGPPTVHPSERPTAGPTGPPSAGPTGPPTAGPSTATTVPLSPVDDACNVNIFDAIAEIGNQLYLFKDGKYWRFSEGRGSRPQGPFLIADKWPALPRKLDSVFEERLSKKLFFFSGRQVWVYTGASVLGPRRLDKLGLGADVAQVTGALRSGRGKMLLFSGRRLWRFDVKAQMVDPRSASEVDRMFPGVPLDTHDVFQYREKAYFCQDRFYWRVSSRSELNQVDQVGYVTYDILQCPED

| Compound | IC50 [1] | IC50 [2] | IC50 (Cathepsin G) | IC50 [3] | Ki [3] | IC50 [4] | IC50 (Progesterone receptor) | Ki [1] | Ki [2] | Ki (Cathepsin G) | Ki [4] | Ki (Progesterone receptor) | IC50 ([4]; read-out: IC50) [nM] | IC50 (Progesterone receptor; read-out: IC50) [nM] | Ki (Progesterone receptor; read-out: Ki) [nM] |
| --- | --- | --- | --- | --- | --- | --- | --- | --- | --- | --- | --- | --- | --- | --- | --- |
| CC(C)CN(C[C@@H](O)[C@H](Cc1ccccc1)NC(=O)O[C@H]1CCOC1)S(=O)(=O)c1ccc(N)cc1 | Not Active | Not Active | Not Active | Not Active | Not Active | Not Active | Not Active | – | – | – | – | – | – | – | – |
| c1ccc(Nc2ccc(Nc3ccccc3)cc2)cc1 | Not Active | Not Active | Not Active | Not Active | Not Active | Not Active | Not Active | – | – | – | – | – | – | – | – |
| COc1cc2c3cc1Oc1cc(ccc1O)C[C@@H]1c4c(cc(OC)c(O)c4Oc4ccc(cc4)C[C@@H]3N(C)CC2)CC[N+]1(C)C.[Cl-] | Not Active | Not Active | Not Active | Not Active | Not Active | Not Active | Not Active | – | – | – | – | – | – | – | – |
| NC(=O)N1c2ccccc2CCc2ccccc21 | Not Active | Not Active | Not Active | Not Active | Not Active | Not Active | Not Active | – | – | – | – | – | – | – | – |
| O=C1CC[C@@H](N2C(=O)c3ccccc3C2=O)C(=O)N1 | Not Active | Not Active | Not Active | Not Active | Not Active | Not Active | Not Active | – | – | – | – | – | – | – | – |
| Cc1onc(O)c1CC(N)C(=O)O (racemic) [(R,S)-AMPA] | Not Active | Not Active | Not Active | Not Active | Not Active | Not Active | Not Active | – | – | – | – | – | – | – | – |
| Cc1ccc2cc3c(ccc4ccccc43)c3c2c1CC3 [3-METHYLCHOLANTHRENE] | Not Active | Not Active | Not Active | Not Active | Not Active | Not Active | Not Active | – | – | – | – | – | – | – | – |
| CC[C@@]1(O)C[C@H](O[C@H]2C[C@H](N(C)C)[C@H](O[C@H]3C[C@H](O)[C@H](O[C@H]4CCC(=O)[C@H](C)O4)[C@H](C)O3)[C@H](C)O2)c2c(cc3c(c2O)C(=O)c2c(O)cccc2C3=O)[C@H]1C(=O)OC [ACLARUBICIN] | Not Active | Not Active | Not Active | Not Active | Not Active | Not Active | Not Active | – | – | – | – | – | – | – | – |
| Nc1nc2c(ncn2COCCO)c(=O)[nH]1 [ACYCLOVIR] | Not Active | Not Active | Not Active | Not Active | Not Active | Not Active | Not Active | – | – | – | – | – | – | – | – |
| Cc1c(C)c2c(c(C)c1O)CC[C@@](C)(CCC[C@H](C)CCC[C@H](C)CCCC(C)C)O2 [ALPHA-TOCOPHEROL] | Not Active | Not Active | Not Active | Not Active | Not Active | Not Active | Not Active | – | – | – | – | – | – | – | – |
| CN(C)c1nc(N(C)C)nc(N(C)C)n1 [ALTRETAMINE] | Not Active | Not Active | Not Active | Not Active | Not Active | Not Active | – | – | – | – | – | – | – | – | – |
| Nc1c(Br)cc(Br)cc1CN[C@H]1CC[C@H](O)CC1 [AMBROXOL] | Not Active | Not Active | Not Active | Not Active | Not Active | Not Active | Not Active | – | – | – | – | – | – | – | – |
| NCCCCCC(=O)O [AMINOCAPROIC ACID] | Not Active | Not Active | Not Active | Not Active | Not Active | Not Active | Not Active | – | – | – | – | – | – | – | – |
| CCC1(c2ccc(N)cc2)CCC(=O)NC1=O (stereo not drawn) [AMINOGLUTETHIMIDE] | Not Active | Not Active | Not Active | Not Active | Not Active | Not Active | Not Active | – | – | – | – | – | – | – | – |
| Cc1ccc(/N=C/N(C)/C=N/c2ccc(C)cc2C)c(C)c1 [AMITRAZ] | Not Active | Not Active | Not Active | Not Active | Not Active | Not Active | Not Active | – | – | – | – | – | – | – | – |
| CCOC(=O)C1=C(COCCN)NC(C)=C(C(=O)OC)C1c1ccccc1Cl (stereo not drawn) [AMLODIPINE] | Not Active | Not Active | Not Active | Not Active | Not Active | Not Active | Not Active | – | – | – | – | – | – | – | – |
| COc1ccc(C[C@H]2NC[C@H](O)[C@H]2OC(C)=O)cc1 [ANISOMYCIN] | Not Active | Not Active | Not Active | Not Active | Not Active | Not Active | Not Active | Not Active | Not Active | Not Active | Not Active | Not Active | – | – | – |
| Nc1ncn([C@@H]2O[C@H](CO)[C@@H](O)[C@H]2O)c(=O)n1 [AZACITIDINE] | Not Active | Not Active | Not Active | Not Active | Not Active | Not Active | Not Active | – | – | – | – | – | – | – | – |
| CN(C)C(=O)Oc1cc(OC(=O)N(C)C)cc(C(O)CNC(C)(C)C)c1 (stereo not drawn) [BAMBUTEROL] | Not Active | Not Active | Not Active | Not Active | Not Active | Not Active | Not Active | – | – | – | – | – | – | – | – |
| c1ccc2c(c1)c1cccc3ccc4cccc2c4c31 [BENZO[E]PYRENE] | Not Active | Not Active | Not Active | Not Active | Not Active | Not Active | Not Active | – | – | – | – | – | – | – | – |
| CNCCc1ccccn1 [BETAHISTINE] | Not Active | Not Active | Not Active | Not Active | Not Active | Not Active | Not Active | – | – | – | – | – | – | – | – |
| CC(C)C(Br)C(=O)NC(N)=O (stereo not drawn) [BROMISOVALUM] | Not Active | Not Active | Not Active | Not Active | Not Active | Not Active | Not Active | – | – | – | – | – | – | – | – |
| CCCC1O[C@@H]2C[C@H]3[C@@H]4CCC5=CC(=O)C=C[C@]5(C)[C@H]4[C@@H](O)C[C@]3(C)[C@]2(C(=O)CO)O1 (stereo partly drawn) [BUDESONIDE] | Not Active | Not Active | Not Active | Not Active | Not Active | – | – | – | – | – | – | – | 1990 | 210 | 27 |
| CC(NC(C)(C)C)C(=O)c1cccc(Cl)c1 (stereo not drawn) [BUPROPION] | Not Active | Not Active | Not Active | Not Active | Not Active | Not Active | Not Active | – | – | – | – | – | – | – | – |
| CN(Cc1ccc(C(C)(C)C)cc1)Cc1cccc2ccccc12 [BUTENAFINE] | Not Active | Not Active | Not Active | Not Active | Not Active | Not Active | Not Active | – | – | – | – | – | – | – | – |
| C[C@H](CS)C(=O)N1CCC[C@H]1C(=O)O [CAPTOPRIL] | Not Active | Not Active | Not Active | Not Active | Not Active | Not Active | Not Active | – | – | – | – | – | – | – | – |
| Cc1ccc(-c2cc(C(F)(F)F)nn2-c2ccc(S(N)(=O)=O)cc2)cc1 [CELECOXIB] | Not Active | Not Active | Not Active | Not Active | Not Active | Not Active | – | – | – | – | – | – | – | 18100 | 2360 |
| CN(C)CCCN1c2ccccc2Sc2ccc(Cl)cc21 [CHLORPROMAZINE] | – | Not Active | Not Active | Not Active | Not Active | Not Active | Not Active | – | – | – | – | – | – | – | – |
| Clc1cccc(Cl)c1NC1=NCCN1 [CLONIDINE] | – | Not Active | Not Active | Not Active | Not Active | Not Active | Not Active | – | – | – | – | – | – | – | – |
| Cc1ccc(N(CC2=NCCN2)c2cccc(O)c2)cc1 [PHENTOLAMINE] | – | Not Active | Not Active | Not Active | Not Active | Not Active | Not Active | – | – | – | – | – | – | – | – |
